Patent publication US10501449B2 (priority 2018, dated 2019)
pIC50: −log10 of the molar value.

How the values were obtained:
hROMK (human Kir1.1) = hROMK (human Kir1.1) (Homo sapiens (Human), UniProt P48048); experiment: cell-based; conditions: CHO T-Rex hROMK stable cell line; thallium flux; 10-point concentration response curve; read-out: Human ROMK Th Flux IC50
hERG channels = hERG channels (Homo sapiens (Human), UniProt Q12809); experiment: hERG Manual Patch Clamp Assay; format: cell-based; conditions: human, HEK 293 cells stably expressing hERG channels, pH 7.4, 1 uM, read-out: hERG EP % Inh @ 1 uM
Sequence of hERG channels (Q12809 whole entry): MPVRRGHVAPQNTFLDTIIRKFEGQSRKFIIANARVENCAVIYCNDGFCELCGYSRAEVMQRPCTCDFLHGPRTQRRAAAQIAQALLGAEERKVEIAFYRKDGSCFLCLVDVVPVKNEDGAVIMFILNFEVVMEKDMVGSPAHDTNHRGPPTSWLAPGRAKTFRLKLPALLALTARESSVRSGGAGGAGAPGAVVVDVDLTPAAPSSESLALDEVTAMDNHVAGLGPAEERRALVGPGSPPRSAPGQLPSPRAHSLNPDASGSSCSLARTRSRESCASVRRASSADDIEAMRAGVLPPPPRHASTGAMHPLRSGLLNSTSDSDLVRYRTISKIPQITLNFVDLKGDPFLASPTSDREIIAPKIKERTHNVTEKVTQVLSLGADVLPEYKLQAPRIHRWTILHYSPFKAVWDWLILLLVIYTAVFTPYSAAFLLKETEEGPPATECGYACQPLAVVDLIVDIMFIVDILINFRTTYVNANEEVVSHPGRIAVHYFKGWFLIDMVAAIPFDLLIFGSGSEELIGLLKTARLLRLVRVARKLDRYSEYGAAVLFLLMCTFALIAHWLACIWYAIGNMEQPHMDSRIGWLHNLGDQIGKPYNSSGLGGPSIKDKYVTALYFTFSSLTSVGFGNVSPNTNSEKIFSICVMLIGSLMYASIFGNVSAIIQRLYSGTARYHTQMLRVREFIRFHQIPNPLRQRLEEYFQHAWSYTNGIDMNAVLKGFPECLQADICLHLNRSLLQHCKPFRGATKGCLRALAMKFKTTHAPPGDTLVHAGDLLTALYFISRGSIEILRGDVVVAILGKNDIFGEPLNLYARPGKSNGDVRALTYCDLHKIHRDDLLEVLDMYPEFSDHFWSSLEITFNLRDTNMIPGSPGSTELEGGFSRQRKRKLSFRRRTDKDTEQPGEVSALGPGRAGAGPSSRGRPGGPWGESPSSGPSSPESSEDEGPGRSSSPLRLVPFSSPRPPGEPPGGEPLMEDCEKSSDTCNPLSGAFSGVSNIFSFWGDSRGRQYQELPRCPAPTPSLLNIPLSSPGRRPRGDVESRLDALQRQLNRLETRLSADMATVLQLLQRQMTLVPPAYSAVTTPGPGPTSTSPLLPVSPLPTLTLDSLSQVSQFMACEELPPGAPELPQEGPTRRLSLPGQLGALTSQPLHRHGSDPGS

Sequence of hROMK (human Kir1.1) (P48048 whole entry): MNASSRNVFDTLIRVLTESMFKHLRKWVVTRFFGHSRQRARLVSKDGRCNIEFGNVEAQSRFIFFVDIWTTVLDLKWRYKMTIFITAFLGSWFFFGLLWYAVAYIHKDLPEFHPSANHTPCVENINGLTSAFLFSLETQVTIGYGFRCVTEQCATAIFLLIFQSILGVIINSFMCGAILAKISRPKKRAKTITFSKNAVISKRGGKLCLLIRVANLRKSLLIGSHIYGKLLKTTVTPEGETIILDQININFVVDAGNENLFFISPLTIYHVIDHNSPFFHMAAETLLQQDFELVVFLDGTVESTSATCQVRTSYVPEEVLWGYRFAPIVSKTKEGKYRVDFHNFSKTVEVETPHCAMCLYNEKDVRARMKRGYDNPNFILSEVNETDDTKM

SMILES | pIC50 (hROMK (human Kir1.1)) | inhibition at 1 µM (hERG channels) [%]
Cc1cn(-c2ncc(CN3CCN[C@H](c4ccc5c(c4C)COC5=O)C3)cc2F)cn1 [Example 144-I, (R)-5-(4-((5-fluoro-6-(4-mehtyl-1H-imidazol-1-yl)pyridin-3-yl)methyl)piperazin-2-yl)-4-methylisobenzofuran-1(3H)-one] | 7.62 | 7.8
Cc1cc(-n2cc(CN3CCN[C@H](c4ccc5c(c4C)COC5=O)C3)c(C)n2)ncc1C#N [Example 145-I, (R)-4-methyl-6-(3-methyl-4-((3-(4-methyl-1-oxo-1,3-dihydroisobenzofuran-5-yl)piperazin-1-yl)methyl)-1H-pyrazol-1-yl)nicotinonitrile] | 7.82 | 25
Cc1cc(-n2ncc(CN3CCN[C@H](c4ccc5c(c4C)COC5=O)C3)c2C)ncc1C#N [Example 146-I, (R)-4-methyl-6-(5-methyl-4-((3-(4-methyl-1-oxo-1,3-dihydroisobenzofuran-5-yl)piperazin-1-yl)methyl)-1H-pyrazol-1-yl)nicotinonitrile] | 7.60 | 16
COc1cc(-n2cnc(C)c2)ncc1CN1CCN[C@H](c2ccc3c(c2C)COC3=O)C1 [Example 149-I, (R)-5-(4-((4-methoxy-6-(4-methyl-1H-imidazol-1-yl)pyridin-3-yl)methyl)piperazin-2-yl)-4-methylisobenzofuran-1(3H)-one] | 7.28 | 7.6
Cc1ncn(-c2ncc(CN3CCN[C@H](c4ccc5c(c4C)COC5=O)C3)cn2)c1C(F)F [Example 150-I, (R)-5-(4-((2-(5-(difluoromethyl)-4-methyl-1H-imidazol-1-yl)pyrimidin-5-yl)methyl)piperazin-2-yl)-4-methylisobenzofuran-1(3H)-one] | 7.00 | 14
COc1cc(N2CC(CN3CCN[C@H](c4ccc5c(c4C)COC5=O)C3)CC2=O)ncc1C#N (stereo partly drawn) [Example 159-I, 4-methoxy-6-(4-(((R)-3-(4-methyl-1-oxo-1,3-dihydroisobenzofuran-5-yl)piperazin-1-yl)methyl)-2-oxopyrrolidin-1-yl)nicotinonitrile] | 7.80 | 21
Cc1cc(-n2cnc(CN3CC[C@@H](O)[C@H](c4ccc5c(c4C)COC5=O)C3)c2)ncc1C#N [Example 163-I, 6-(4-(((3R,4R)-4-hydroxy-3-(4-methyl-1-oxo-1,3-dihydroisobenzofuran-5-yl)piperidin-1-yl)methyl)-1H-imidazol-1-yl)-4-methylnicotinonitrile] | 7.54 | 4.5
Cc1c([C@@H]2CN(Cc3cnn(-c4cc(N5CCOC5=O)ccn4)c3)CCN2)ccc2c1COC2=O [Example 185-I, (R)-3-(2-(4-((3-(4-methyl-1-oxo-1,3-dihydroisobenzofuran-5-yl)piperazin-1-yl)methyl)-1H-pyrazol-1-yl)pyridin-4-yl)oxazolidin-2-one] | 7.00 | 9.6
COc1cc(-n2cc(CCN3C[C@@H](c4ccc5c(c4C)COC5=O)N[C@@H](C)C3)cn2)ncc1C#N [Example 192-I, 4-methoxy-6-(4-(2-((3S,5R)-3-methyl-5-(4-methyl-1-oxo-1,3-dihydroisobenzofuran-5-yl)piperazin-1-yl)ethyl)-1H-pyrazol-1-yl)nicotinonitrile] | 7.80 | 46
COc1ncnc(-n2cc(CN3C[C@@H](c4ccc5c(c4C)COC5=O)N[C@@H](C)C3)cn2)n1 [Example 194-I, 5-((2R,6S)-4-((1-(4-methoxy-1,3,5-triazin-2-yl)-1H-pyrazol-4-yl)methyl)-6-methylpiperazin-2-yl)-4-methylisobenzofuran-1(3H)-one] | 7.22 | 11
Cc1c([C@@H]2CN(Cc3cnn(-c4cc(C#N)ccn4)c3)CCN2)ccc2c1COC2=O [Example 198-I, (R)-2-(4-((3-(4-methyl-1-oxo-1,3-dihydroisobenzofuran-5-yl)piperazin-1-yl)methyl)-1H-pyraozl-1-yl)isonicotinonitrile] | 7.08 | 0
Cc1cc(-c2cc(CN3C[C@@H](c4ccc5c(c4C)COC5=O)N[C@@H](C)C3)on2)ncc1C#N [Example 214-I, 4-methyl-6-(5-(((3S,5R)-3-methyl-5-(4-methyl-1-oxo-1,3-dihydroisobenzofuran-5-yl)piperazin-1-yl)methyl)isoxazol-3-yl)nicotinonitrile] | 8.18 | 22
Cc1c([C@@H]2CN(Cc3cnc(-n4cnc(C#N)c4)nc3)CCN2)ccc2c1COC2=O [Example 215-I] | 7.96 | 29
Cc1c([C@@H]2CN(Cc3cnc(-n4cnc(C#N)n4)nc3)CCN2)ccc2c1COC2=O [Example 217-I, (R)-1-(5-((3-(4-methyl-1-oxo-1,3-dihydroisobenzofuran-5-yl)piperazin-1-yl)methyl)pyrimidin-2-yl)-1H-1,2,4-triazole-3-carbonitrile] | 7.62 | 16
Cc1c([C@@H]2CN(Cc3cnc(-n4cc(C#N)c(C5CC5)n4)nc3)CCN2)ccc2c1COC2=O [Example 218-I, (R)-3-cyclopropyl-1-(5-((3-(4-methyl-1-oxo-1,3-dihydroisobenzofuran-5-yl)piperazin-1-yl)methyl)pyrimidin-2-yl)-1H-pyrazole-4-carbonitrile] | 7.48 | 39
Cc1c([C@@H]2CN(Cc3ccc(-n4cc(C#N)c(OC(F)F)n4)nc3)CCN2)ccc2c1COC2=O [Example 219-I, (R)-3-(difluoromethoxy)-1-(5-((3-(4-methyl-1-oxo-1,3-dihydroisobenzofuran-5-yl)piperazin-1-yl)methyl)pyridin-2-yl)-1H-pyrazole-4-carbonitrile] | 7.68 | 75
Cc1c([C@@H]2CN(Cc3cnn(-c4cc(N5CCOCC5)c(C#N)cn4)c3)CCN2)ccc2c1COC2=O [Example 220-I, (R)-6-(4-((3-(4-methyl-1-oxo-1,3-dihydroisobenzofuran-5-yl)piperazin-1-yl)methyl)-1H-pyrazol-1-yl)-4-morpholinonicotinonitrile] | 7.54 | 30
Cc1cn(-c2ccc(CN3CCN[C@H](c4ccc5c(c4C)COC5=O)C3)cn2)nn1 [Example 222-I, (R)-4-methyl-5-(4-((6-(4-methyl-1H-1,2,3-triazol-1-yl)pyridin-3-yl)methyl)piperazin-2-yl)isobenzofuran-1(3H)-one] | 7.22 | 12
COc1nn(-c2ccc(CN3CCN[C@H](c4ccc5c(c4C)COC5=O)C3)cn2)cc1C#N [Example 223-I, (R)-3-methoxy-1-(5-((3-(4-methyl-1-oxo-1,3-dihydroisobenzofuran-5-yl)piperazin-1-yl)methyl)pyridin-2-yl)-1H-pyrazole-4-carbonitrile] | 7.74 | 56
Cc1c([C@@H]2CN(Cc3ccc(-n4cc(C#N)nn4)nc3)CCN2)ccc2c1COC2=O [Example 225-I, (R)-1-(5-((3-(4-methyl-1-oxo-1,3-dihydroisobenzofuran-5-yl)piperazin-1-yl)methyl)pyridin-2-yl)-1H-1,2,3-triazole-4-carbonitrile] | 7.72 | 39
